Key:
[1] = molecular target: Btk enzyme (His-tagged, full-length) (Homo sapiens (Human), UniProt Q06187); assay: Bruton's Tyrosine Kinase (Btk) Inhibition Assay; format: biochemical; conditions: 33P filtration capture assay, 100 μM ATP, 30 μM biotinylated peptide substrate
Description: The assay is a capture of radioactive ^33P phosphorylated product through filtration. The interactions of Btk, biotinylated SH2 peptide substrate (Src homology), and ATP lead to phosphorylation of the peptide substrate. Biotinylated product is bound streptavidin sepharose beads. All bound, radiolabeled products are detected by scintillation counter.
Plates assayed are 96-well polypropylene (Greiner) and 96-well 1.2 μm hydrophilic PVDF filter plates (Millipore). Concentrations reported here are final assay concentrations: 10-100 μM compounds in DMSO (Burdick and Jackson), 5-10 nM Btk enzyme (His-tagged, full-length), 30 μM peptide substrate (Biotin-Aca-[…]-NH2), 100 μM ATP (Sigma), 8 mM imidazole (Sigma, pH 7.2), 8 mM glycerol-2-phosphate (Sigma), 200 μM EGTA (Roche Diagnostics), 1 mM MnCl2 (Sigma), 20 mM MgCl2 (Sigma), 0.1 mg/ml BSA (Sigma), 2 mM DTT (Sigma), 1 μCi ^33P ATP (Amersham), 20% streptavidin sepharose beads (Amersham), 50 mM EDTA (Gibco), 2 M NaCl (Gibco), 2 M NaCl w/1% phosphoric acid (Gibco), microscint-20 (Perkin Elmer).
IC50 determinations are calculated from 10 data points per compound utilizing data produced from a standard 96-well plate assay template. One control compound and seven unknown inhibitors were tested on each plate and each plate was run twice. Typically, compounds were diluted in half-log starting at 100 μM and ending at 3 nM. The control compound was staurosporine. Background was counted in the absence of peptide substrate. Total activity was determined in the presence of peptide substrate. The following protocol was used to determine Btk inhibition.
1) Sample preparation: The test compounds were diluted at half-log increments in assay buffer (imidazole, glycerol-2-phosphate, EGTA, MnCl2, MgCl2, BSA).
a.) rinse beads by centrifuging at 500 g
b.) reconstitute the beads with PBS and EDTA to produce a 20% bead slurry
3) Pre-incubate reaction mix without substrate (assay buffer, DTT, ATP, ^33P ATP) and mix with substrate (assay buffer, DTT, ATP, ^33P ATP, peptide substrate) 30° C. for 15 min.
4) To start assay, pre-incubate 10 μL Btk in enzyme buffer (imidazole, glycerol-2-phosphate, BSA) and 10 μL of test compounds for 10 min at RT.
5) Add 30 μL reaction mixture without or with substrate to Btk and compounds.
6) Incubate 50 μL total assay mix for 30 min at 30° C.
7) Transfer 40 μL of assay to 150 μL bead slurry in filter plate to stop reaction.
8) Wash filter plate after 30 min, with following steps
b. 3×250 μL NaCl containing 1% phosphoric acid
9) Dry plate for 1 h at 65° C. or overnight at RT
10) Add 50 μL microscint-20 and count ^33P cpm on scintillation counter. […]

Btk enzyme (His-tagged, full-length), sequence (Q06187 whole entry): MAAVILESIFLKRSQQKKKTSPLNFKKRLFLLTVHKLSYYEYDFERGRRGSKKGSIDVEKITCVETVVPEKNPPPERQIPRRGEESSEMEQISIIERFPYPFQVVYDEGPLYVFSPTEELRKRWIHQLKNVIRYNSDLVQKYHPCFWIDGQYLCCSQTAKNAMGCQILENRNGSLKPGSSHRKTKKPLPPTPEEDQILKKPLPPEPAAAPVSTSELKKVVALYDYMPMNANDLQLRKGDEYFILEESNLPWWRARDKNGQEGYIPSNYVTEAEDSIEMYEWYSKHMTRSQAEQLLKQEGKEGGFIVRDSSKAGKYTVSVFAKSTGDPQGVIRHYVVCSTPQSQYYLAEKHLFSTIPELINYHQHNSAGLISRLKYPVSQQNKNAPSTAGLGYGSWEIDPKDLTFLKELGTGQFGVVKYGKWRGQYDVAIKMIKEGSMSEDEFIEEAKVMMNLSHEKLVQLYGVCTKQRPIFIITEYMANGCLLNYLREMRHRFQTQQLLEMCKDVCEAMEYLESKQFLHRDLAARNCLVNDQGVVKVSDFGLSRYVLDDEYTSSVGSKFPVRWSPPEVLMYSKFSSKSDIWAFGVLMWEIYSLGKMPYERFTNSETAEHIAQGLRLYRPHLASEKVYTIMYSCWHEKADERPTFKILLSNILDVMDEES

Compound: Cc1c(-c2cc(Nc3ccc(C(=O)N4CCOCC4)cn3)c(=O)n(C)c2)cccc1N1CNc2cc(N(C)C)ccc2C1=O [II-1, 7-Dimethylamino-3-(2-methyl-3-{1-methyl-5-[5-(morpholin-4-carbonyl)-pyridin-2-ylamino]-6-oxo-1,6-dihydro-pyridin-3-yl}-phenyl)-2,3-dihydro-1H-quinazolin-4-one]
- IC50 [1]: 22 nM
- melting point: 247.1 to 250.9 °C

Compound: CNC(=O)Nc1cc(-c2cccc(N3CNc4cc(N(C)C)ccc4C3=O)c2C)cn(C)c1=O [II-2, 1-{5-[3-(7-Dimethylamino-4-oxo-1,4-dihydro-2H-quinazolin-3-yl)-2-methyl-phenyl]-1-methyl-2-oxo-1,2-dihydro-pyridin-3-yl}-3-methyl-urea]
- melting point: 218.5 to 223.8 °C

Compound: CNC(=O)Nc1cc(-c2cccc(-n3cnc4cc(C(C)(C)C)ccc4c3=O)c2C)cn(C)c1=O [Compound I-1, 1-{5-[3-(7-tert-Butyl-4-oxo-4H-quinazolin-3-yl)-2-methyl-phenyl]-1-methyl-2-oxo-1,2-dihydro-pyridin-3-yl}-3-methyl urea]
- IC50 [1]: 112 nM

Compound: Cc1c(-c2cc(Nc3ccc(C(=O)N4CCOCC4)cn3)c(=O)n(C)c2)cccc1N1CNc2cc(C(C)(C)O)ccc2C1=O [II-3, 7-(1-Hydroxy-1-methyl-ethyl)-3-(2-methyl-3-{1-methyl-5-[5-(morpholine-4-carbonyl)-pyridin-2-ylamino]-6-oxo-1,6-dihydro-pyridin-3-yl}-phenyl)-2,3-dihydro-1H-quinazolin-4-one]
- IC50 [1]: 18 nM
- melting point: 196 to 197 °C

Compound: Cc1c(-c2cc(Nc3ccc(C(=O)N4CCOCC4)cn3)c(=O)n(C)c2)cccc1-n1ncc2cc(N(C)C)ccc2c1=O [III-1, 6-Dimethylamino-2-(2-methyl-3-{1-methyl-5-[5-(morpholine-4-carbonyl)-pyridin-2-ylamino]-6-oxo-1,6-dihydro-pyridin-3-yl}-phenyl)-2H-phthalazin-1-one]
- IC50 [1]: 124 nM

Reference: patent US8618098B2, “Inhibitors of bruton's tyrosine kinase” (Roche Palo Alto LLC, priority 2008, dated 2013)
